# Measured values reported in article PMC5762535, “Novel indazole-based small compounds enhance TRAIL-induced apoptosis by inhibiting the MKK7-TIPRL interaction in hepatocellular carcinoma” (Oncotarget, 2017).
# Where two headings read alike, the source gives them in different places.
# T1: MKK7-TIPRL interaction (Homo sapiens, UniProt O14733+O75663)
# T1 sequence (O14733 1-419): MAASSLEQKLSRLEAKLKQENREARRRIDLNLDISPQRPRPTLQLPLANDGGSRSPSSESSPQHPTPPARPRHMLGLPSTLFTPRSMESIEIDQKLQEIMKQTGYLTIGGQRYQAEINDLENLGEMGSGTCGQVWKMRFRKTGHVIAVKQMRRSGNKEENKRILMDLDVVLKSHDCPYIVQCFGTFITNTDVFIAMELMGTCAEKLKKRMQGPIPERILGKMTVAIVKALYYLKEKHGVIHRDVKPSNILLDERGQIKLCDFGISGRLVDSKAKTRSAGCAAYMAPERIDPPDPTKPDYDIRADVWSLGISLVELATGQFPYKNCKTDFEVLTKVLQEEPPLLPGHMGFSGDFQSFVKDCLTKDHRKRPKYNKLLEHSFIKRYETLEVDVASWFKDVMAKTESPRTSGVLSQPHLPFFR
# T1 sequence (O75663 1-272): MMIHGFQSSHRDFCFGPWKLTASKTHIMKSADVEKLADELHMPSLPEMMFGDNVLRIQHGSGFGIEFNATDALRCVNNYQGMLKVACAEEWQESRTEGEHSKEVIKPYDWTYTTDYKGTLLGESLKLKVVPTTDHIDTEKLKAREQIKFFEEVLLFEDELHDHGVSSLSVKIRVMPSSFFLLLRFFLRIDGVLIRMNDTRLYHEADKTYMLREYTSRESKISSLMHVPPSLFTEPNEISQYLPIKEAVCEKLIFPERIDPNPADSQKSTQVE
# B1: TRAIL: human TRAIL protein, member of the TNF superfamily, used as co-treatment (protein, UniProt P50591 1-281, looked up)
# Tumor necrosis factor ligand …: MAMMEVQGGPSLGQTCVLIVIFTVLLQSLCVAVTYVYFTNELKQMQDKYSKSGIACFLKEDDSYWDPNDEESMNSPCWQVKWQLRQLVRKMILRTSEETISTVQEKQQNISPLVRERGPQRVAAHITGTRGRSNTLSSPNSKNEKALGRKINSWESSRSGHSFLSNLHLRNGELVIHEKGFYYIYSQTYFRFQEEIKENTKNDKQMVQYIYKYTSYPDPILLMKSARNSCWSKDAEYGLYSIYQGGIFELKENDRIFVSVTNEHLIDMDHEASFFGAFLVG
# Legend:
# caspase-3 = assay: Caspase 3 activity assay in Huh7 cells; assay type: cell-based, human; details: each compound at its working concentration and time of the table
# Method: The caspase 3 activity was measured using a caspase-3 luminescent assay kit (Promega, Madison, WI, USA), according to the manufacturer's instructions, and a luminescence plate reader (Molecular Devices Co., Sunnyvale, USA).
# MKK7-TIPRL interaction [1] = target: T1, MKK7-TIPRL interaction; assay: GST pull-down assay of MKK7-TIPRL in 293T cells; assay type: cell-based; details: 10 μM TRT-0029 or 20 μM TRT-0173, 24 h
# Method: The full-length cDNAs of human TIPRL and MKK7 were subcloned into the pCGN vector (W. Herr, Cold Spring Harbor Laboratory) and the pEBG vector containing a GST tag to construct the HA-tagged and the GST-tagged plasmids, respectively. 293T cells were transfected with expression vector constructs using the TurboFect Transfection Reagent (Thermo Fisher Scientific, Lafayette, USA) and then were lysed in RIPA buffer (50 mM Tris-HCl, 150 mM NaCl, 1% Triton™ X-100, 0.1% SDS, 1 mM EDTA, 1 mM Na3VO4, and 1 mM NaF) containing complete protease inhibitor cocktail (Roche Applied Science, Indianapolis, USA). Whole-cell extracts were incubated with Glutathione Sepharose 4B (GE Healthcare, Uppsala, Sweden), and the eluted GST-tagged proteins were subjected to Western blotting using the indicated antibodies.
# Pharmacokinetics in rats = assay type: in vivo, Sprague-Dawley rats; details: rat; for AUC: male, Sprague-Dawley, plasma, after 24 h
# Method: Male Sprague-Dawley rats anesthetized with ketamine were cannulated with polyethylene tubing in the femoral vein. A solution of lead compound (TRT-0029 or TRT-0173) was prepared by dissolving the compounds in a mixture of dimethyl sulfoxide (DMSO)/ polyethylene glycol 400 (PEG 400)/ distilled water (0.5: 4: 5.5), and was administered to rats by a bolus injection in the femoral vein. Blood samples were collected via the femoral vein 0, 2, 10, and 30 min, as well as 1, 2, 4, 6, 8, and 24 h after intravenous administration. For oral administration, blood was collected 0.25, 0.5, 1, 2, 4, 6, 8, and 24 h after treatment. The plasma fractions were prepared by centrifugation and were stored at −70°C before the liquid chromatography-tandem mass spectrometry (LC/MS/MS) analysis. The concentrations of target compound in the plasma were measured using LC-MS/MS (4000 QTRAP, AB SCIEX, Foster City, CA) in multiple reaction monitoring (MRM) mode. The PK parameters were determined with non-compartmental methods using Phoenix WinNolin (Pharsight, Mountain View, CA). The area under the plasma concentration-time curve (AUC) was calculated using the trapezoidal rule extrapolated to infinity. The terminal elimination half-life (t1/2), and the systemic clearance (CL) were obtained. The peak plasma concentration (Cmax) after oral administration was obtained by visual inspection of the plasma concentration-time plot of each rat.
# Huh7 tumor xenografts = assay: In vivo Huh7 xenograft assay; parameters: species or system BALB/c nude mice
# Description: Five-week-old female BALB/c nude mice were purchased from SLC Japan and were maintained in accordance with the guidelines of the Institutional Review Committee for Animal Care and Use of the Korea Research Institute of Bioscience and Biotechnology. Protocol approval was obtained from the same committee.
# Huh7 cells were harvested and subcutaneously injected (5 × 10^6 cells/mouse) into nude mice (N = 6/group for TRT-0173 or TRT-0029 experiments). When the tumor volume reached ~100 mm^3, the mice were divided into four groups and treated with vehicle, TRAIL (2.5 mg/kg, intraperitoneal), lead compound (TRT-0029 or TRT-0173, 30 mg/kg, intravenously), or lead compound (30 mg/kg, intravenously) combined with TRAIL (2.5 mg/kg, intraperitoneal) daily for 11 days (11 treatments in total). The tumor volumes were measured every 2 days for 11 days after treatment, and tumor volume was calculated according to the following equation: V (mm^3) = width^2 (mm^2) × length (mm)/2. Body weight and tumor mass were measured 11 days after treatment.
# caspase-3 and PARP = assay: Western blot of cleaved caspase-3 and PARP in Huh7 cells; assay type: cell-based, human; details: lead compounds co-treated with TRAIL 100 ng/ml, TRAIL tested alone
# Method: The cells were lysed in lysis buffer (50 mM Tris-HCl, pH 7.4, 150 mM NaCl, 1% Triton™ X-100, 0.1% SDS, 1 mM EDTA, 1 mM Na3VO4, 1 mM NaF, and protease inhibitor cocktail) and clarified by centrifugation at 14,000×g for 20 min at 4°C. The protein samples were then subjected to Western blotting with the indicated antibodies.
# [2] = MTT cell viability assay, Huh7 cells; assay type: cell-based, human; details: human, Huh7 cells, without TRAIL; for viability: MTT, Supplementary Table 2, read-out: Cell viability assay (%) Compound only
# Method: (§1) Cell viability was assessed using a 3-(4,5-dimethylthiazol-2-yl)-2,5-diphenyltetrazolium bromide (MTT, Sigma-Aldrich, St. Louis, USA) assay. The cells were seeded at a density of 1 × 10^4 cells per well and treated with the lead compounds and/or TRAIL. After 24 or 48 h, MTT (2 mg/ml) was added to each well, and the absorbance was measured using a microplate reader (Bio-Rad, Hercules, USA) at 570 nm. The cell viability was calculated as the percentage of viable cells in the drug-treated group versus the untreated control using the following equation: cell viability (%) = [OD (drug)-OD (blank)]/[OD (control)-OD (blank)] × 100.
# Huh7 cells = assay: MTT cell viability assay, Huh7 cells; assay type: cell-based, human; details: for effect on cell viability / cell death of Huh7 cells in the presence of TRAIL: MTT, co-treatment with TRAIL
# Method: as §1
# HepG2 cells = assay: MTT cell viability assay, HepG2 cells; assay type: cell-based, human; details: 10 µM TRT-0029 or 20 µM TRT-0173 plus TRAIL 100 ng/ml, 24 h
# Method: as §1
# MKK7-TIPRL interaction [3] = target: T1, MKK7-TIPRL interaction; assay: ELISA of the MKK7-TIPRL interaction; assay type: binding; parameters: The full-length cDNAs of human TIPRL and MKK7 were provided by the Korea Human Gene Bank; His; made in house
# Description: The full-length cDNAs of human TIPRL and MKK7 were provided by the Korea Human Gene Bank (Korea Research Institute of Biosciences and Biotechnology, South Korea). TIPRL and MKK7 were subcloned into the pET21a vector (purchased from Novagen, San Diego, CA) and the pEBG vector containing a GST tag (kindly provided by Y. Liu, National Institute on Aging, National Institutes of Health) to construct the His-tagged and the GST-tagged plasmids, respectively. Purified TIPRL was conjugated with horseradish peroxidase (HRP). To screen chemical compounds using HTS, an ELISA system that detected the TIPRL and MKK7 interaction was constructed. Briefly, 96-well ELISA plates were coated with GST-MKK7 dissolved in PBS-T buffer (PBS containing 0.05% Tween-20 and 0.5% BSA), followed by the addition of 100 μl of TIPRL-HRP dissolved in PBS-T buffer. After 1 h, 100 μl of tetramethylbenzidine (TMB) solution was added to each well and the absorbance was read at 450 nm.
# [4] = hit compounds from the in-house library, Supplementary Table 2, read-out: ELISA IC50
molecule,measurement,setting,value
COc1ccc(S(=O)(=O)Nc2ccc3c(cnn3-c3ccc(F)cc3)c2)cc1 [TRT-0173],Caspase 3 activity Compound + TRAIL/Compound,caspase-3,2.10 ratio
same,"interaction between MKK7 and TIPRL in GST pull-down assay, compared with untreated cells",MKK7-TIPRL interaction [1],significantly decreased the interaction
same,AUC,"Pharmacokinetics in rats; iv, i.v. 5 mg/kg, read-out: AUC (i.v.)",4270 ng·h/mL
same,AUC,"Pharmacokinetics in rats; po, p.o. 5 mg/kg, read-out: AUC (p.o.)",1150 ng·h/mL
same,oral availability,Pharmacokinetics in rats; 5 mg/kg i.v. and p.o.,26.8%
same,"tumor volume / tumor growth at 11 days, compound + TRAIL compared with compound alone",Huh7 tumor xenografts; compound 30 mg/kg i.v. plus TRAIL 2.5 mg/kg i.p. daily,moderately inhibited tumor growth
same,"reduction of average tumor mass, lead compound + TRAIL","Huh7 tumor xenografts; compound 30 mg/kg i.v. plus TRAIL 2.5 mg/kg i.p. daily for 11 days, versus vehicle control",42.2%
same,"apoptosis signals (cleaved caspase-3, PARP) by Western blotting",caspase-3 and PARP,activated apoptosis signals
same,"viability at 24 h, 10 µM","[2]; Huh7, MTT, 10 µM, 24 hrs, Supplementary Table 3, read-out: Cell viability assay Compound only",53%
same,"reduction of cell viability of Huh7 cells by co-treatment with TRAIL, compared to TRAIL alone","Huh7 cells; 10 μM TRT-0029 or 20 μM TRT-0173 plus TRAIL, 24 h",~90%
same,viability at 10 µM,"Huh7 cells; Homo sapiens, Huh-7, Huh7, MTT, 10 µM, 24 hrs, with TRAIL, Supplementary Table 3, read-out: Cell viability assay Compound + TRAIL",7%
same,effective working concentration,"Huh7 cells; Huh7 cells, various doses with and without TRAIL (100 ng/ml), 24 h",20 µM
same,decrease of HepG2 viability by co-treatment with TRAIL,HepG2 cells,53%
O=[N+]([O-])c1ccc(F)c(/C=N/Nc2ccc(F)cc2)c1 [Compound 7],IC50,MKK7-TIPRL interaction [3]; [4],8900 nM
same,viability,[2],89%
O=[N+]([O-])c1ccc2c(cnn2-c2ccc(F)cc2)c1 [Compound 8],IC50,MKK7-TIPRL interaction [3]; [4],2800 nM
same,viability,[2],69%
CC(=O)c1cc(-n2ncc3cc(N)ccc32)c(Cl)cc1Cl [TRT-0002],Caspase 3 activity Compound + TRAIL/Compound,caspase-3,1.80 ratio
same,IC50,MKK7-TIPRL interaction [3]; [4],1000 nM
same,IC50,"MKK7-TIPRL interaction [3]; newly synthesized TRT-0002, ELISA, read-out: IC50 to inhibit the MKK7-TIPRL interaction",1400 nM
same,"viability at 48 h, 40 µM","[2]; Huh7, MTT, 40 µM, 48 hrs, Supplementary Table 3, read-out: Cell viability assay Compound only",81%
same,viability,[2],80%
same,viability at 40 µM,"Huh7 cells; Homo sapiens, Huh-7, Huh7, MTT, 40 µM, 48 hrs, with TRAIL, Supplementary Table 3, read-out: Cell viability assay Compound + TRAIL",29%
same,effect on cell viability / cell death of Huh7 cells in the presence of TRAIL,Huh7 cells,significantly enhanced TRAIL-induced cell death
same,effect on cell viability / cell death of Huh7 cells in the presence of TRAIL,Huh7 cells; listed as 16,synergetic effect
O=Cc1cc([N+](=O)[O-])ccc1F [Compound 6],IC50,MKK7-TIPRL interaction [3]; [4],2000 nM
same,viability,[2],93%
CC(=O)c1cc(-n2ncc3cc(NS(=O)(=O)c4ccccc4)ccc32)c(Cl)cc1Cl [Compound 3],IC50,MKK7-TIPRL interaction [3]; [4],1700 nM
same,viability,[2],42%
CC(=O)c1cc(-n2cc3cc(N)ccc3n2)c(Cl)cc1Cl [Compound 10],IC50,MKK7-TIPRL interaction [3]; [4],3500 nM
same,viability,[2],111%
Nc1ccc2c(cnn2-c2ccc(F)cc2)c1 [Compound 9],IC50,MKK7-TIPRL interaction [3]; [4],1000 nM
same,viability,[2],90%
Nc1ccc2[nH]ncc2c1 [Compound 5],IC50,MKK7-TIPRL interaction [3]; [4],1400 nM
same,viability,[2],81%
COc1ccc(S(=O)(=O)Nc2ccc3c(cnn3-c3ccc(F)cc3)c2)cc1 [Compound 4],IC50,MKK7-TIPRL interaction [3]; [4],89 nM
same,viability,[2],86%
B1,anti-cancer effects of TRAIL alone in vivo,"Huh7 tumor xenografts; 5 and 2.5 mg/kg, data not shown",dose-dependent anti-cancer effects
same,"reduction of average tumor mass, TRAIL alone",Huh7 tumor xenografts; TRAIL 2.5 mg/kg i.p. daily for 11 days,24.8%
same,"apoptosis signals (cleaved caspase-3, PARP) by Western blotting",caspase-3 and PARP,did not activate caspase-3
